Test results published in PubChem BioAssay (NCI).
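Results reflect a 48-hour exposure of cells in 96-well plates to compound at five concentrations. GI50 marks 50% less growth. TGI is the concentration that stops growth completely.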

Key:
Assay in all cases: DTP human tumour cell line panel, 48 h
786-0 renal = tested on: 786-0 renal
A498 renal = tested on: A498 renal
A549 NSCLC = tested on: A549 NSCLC
ACHN renal = tested on: ACHN renal
BT-549 breast = tested on: BT-549 breast
CAKI-1 renal = tested on: CAKI-1 renal
CCRF-CEM leukemia = tested on: CCRF-CEM leukemia
COLO 205 colon = tested on: COLO 205 colon
DU-145 prostate = tested on: DU-145 prostate
EKVX NSCLC = tested on: EKVX NSCLC
HCC-2998 colon = tested on: HCC-2998 colon
HCT-116 colon = tested on: HCT-116 colon
HCT-15 colon = tested on: HCT-15 colon
HL-60(TB) leukemia = tested on: HL-60(TB) leukemia
HOP-62 NSCLC = tested on: HOP-62 NSCLC
HOP-92 NSCLC = tested on: HOP-92 NSCLC
HS 578T breast = tested on: HS 578T breast
HT29 colon = tested on: HT29 colon
IGROV1 ovarian = tested on: IGROV1 ovarian
K-562 leukemia = tested on: K-562 leukemia
KM12 colon = tested on: KM12 colon
LOX IMVI melanoma = tested on: LOX IMVI melanoma
M14 melanoma = tested on: M14 melanoma
MALME-3M melanoma = tested on: MALME-3M melanoma
MCF7 breast = tested on: MCF7 breast
MDA-MB-231 breast = tested on: MDA-MB-231 breast
MDA-MB-435 = tested on: MDA-MB-435
MDA-MB-468 breast = tested on: MDA-MB-468 breast
MOLT-4 leukemia = tested on: MOLT-4 leukemia
NCI-H226 lung = tested on: NCI-H226 lung
NCI-H23 lung = tested on: NCI-H23 lung
NCI-H460 lung = tested on: NCI-H460 lung
NCI-H522 lung = tested on: NCI-H522 lung
OVCAR-3 ovarian = tested on: OVCAR-3 ovarian
OVCAR-4 ovarian = tested on: OVCAR-4 ovarian
OVCAR-5 ovarian = tested on: OVCAR-5 ovarian
OVCAR-8 ovarian = tested on: OVCAR-8 ovarian
PC-3 prostate = tested on: PC-3 prostate
RPMI-8226 leukemia = tested on: RPMI-8226 leukemia
RXF 393 renal = tested on: RXF 393 renal
SF-268 CNS = tested on: SF-268 CNS
SF-295 CNS = tested on: SF-295 CNS
SF-539 CNS = tested on: SF-539 CNS
SK-MEL-2 melanoma = tested on: SK-MEL-2 melanoma
SK-MEL-28 melanoma = tested on: SK-MEL-28 melanoma
SK-MEL-5 melanoma = tested on: SK-MEL-5 melanoma
SK-OV-3 ovarian = tested on: SK-OV-3 ovarian
SN12C renal = tested on: SN12C renal
SNB-19 CNS = tested on: SNB-19 CNS
SNB-75 CNS = tested on: SNB-75 CNS
SR leukemia = tested on: SR leukemia
SW-620 colon = tested on: SW-620 colon
T-47D breast = tested on: T-47D breast
TK-10 renal = tested on: TK-10 renal
U251 CNS = tested on: U251 CNS
UACC-257 melanoma = tested on: UACC-257 melanoma
UACC-62 melanoma = tested on: UACC-62 melanoma
UO-31 renal = tested on: UO-31 renal
NCI/ADR-RES ovarian = tested on: NCI/ADR-RES ovarian

## O=C1Nc2ccc(F)cc2/C1=C/c1cccc(OCc2ccccc2)c1
786-0 renal
  GI50: 14.5 µM
  TGI: 29.5 µM
A498 renal
  GI50: 29.7 µM
  TGI: > 100 µM
A549 NSCLC
  GI50: 18.6 µM
  TGI: 75 µM
ACHN renal
  GI50: 13.5 µM
  TGI: 26.5 µM
BT-549 breast
  GI50: 10.5 µM
  TGI: 23.4 µM
CAKI-1 renal
  GI50: 8.46 µM
  TGI: 21.7 µM
CCRF-CEM leukemia
  GI50: 12.4 µM
  TGI: 35.2 µM
COLO 205 colon
  GI50: 17.8 µM
  TGI: 35.5 µM
DU-145 prostate
  GI50: 14.8 µM
  TGI: 31.4 µM
EKVX NSCLC
  GI50: 12.8 µM
  TGI: 27.8 µM
HCC-2998 colon
  GI50: 16.3 µM
  TGI: 31.7 µM
HCT-116 colon
  GI50: 10.5 µM
  TGI: 25.9 µM
HCT-15 colon
  GI50: 11.9 µM
  TGI: 29.3 µM
HL-60(TB) leukemia
  GI50: 11.7 µM
  TGI: 34.1 µM
HOP-62 NSCLC
  GI50: 16.2 µM
  TGI: 37.1 µM
HOP-92 NSCLC
  GI50: 3.76 µM
  TGI: 17.1 µM
HS 578T breast
  GI50: 15.4 µM
  TGI: 57.9 µM
HT29 colon
  GI50: 17.8 µM
  TGI: 35.4 µM
IGROV1 ovarian
  GI50: 13.4 µM
  TGI: 27.1 µM
K-562 leukemia
  GI50: 10.5 µM
  TGI: 31.8 µM
KM12 colon
  GI50: 13.7 µM
  TGI: 32.4 µM
LOX IMVI melanoma
  GI50: 8.51 µM
  TGI: 28.7 µM
M14 melanoma
  GI50: 14.9 µM
  TGI: 31.5 µM
MALME-3M melanoma
  GI50: 15.5 µM
  TGI: 29 µM
MCF7 breast
  GI50: 5.44 µM
  TGI: 21.8 µM
MDA-MB-231 breast
  GI50: 13.8 µM
  TGI: 29.2 µM
MDA-MB-435
  GI50: 15.1 µM
  TGI: 29 µM
MDA-MB-468 breast
  GI50: 10.8 µM
  TGI: 23.6 µM
MOLT-4 leukemia
  GI50: 6.85 µM
  TGI: 30.2 µM
NCI-H226 lung
  GI50: 12.5 µM
  TGI: 27.1 µM
NCI-H23 lung
  GI50: 11.7 µM
  TGI: 27.5 µM
NCI-H460 lung
  GI50: 14.1 µM
  TGI: 28.7 µM
NCI-H522 lung
  GI50: 12.4 µM
  TGI: 27.3 µM
OVCAR-3 ovarian
  GI50: 11.8 µM
  TGI: 24.7 µM
OVCAR-4 ovarian
  GI50: 9.89 µM
  TGI: 30.2 µM
OVCAR-5 ovarian
  GI50: 16.5 µM
  TGI: 30.6 µM
OVCAR-8 ovarian
  GI50: 20.1 µM
  TGI: 57.8 µM
PC-3 prostate
  GI50: 13.8 µM
  TGI: 30.3 µM
RPMI-8226 leukemia
  GI50: 10.7 µM
  TGI: 30.7 µM
RXF 393 renal
  GI50: 13.7 µM
  TGI: 29.8 µM
SF-268 CNS
  GI50: 14 µM
  TGI: 34.2 µM
SF-295 CNS
  GI50: 15.2 µM
  TGI: 34.2 µM
SF-539 CNS
  GI50: 14.8 µM
  TGI: 28.1 µM
SK-MEL-2 melanoma
  GI50: 12.9 µM
  TGI: 27.8 µM
SK-MEL-28 melanoma
  GI50: 16 µM
  TGI: 30.1 µM
SK-MEL-5 melanoma
  GI50: 15.8 µM
  TGI: 29.8 µM
SK-OV-3 ovarian
  GI50: 16.7 µM
  TGI: 39.4 µM
SN12C renal
  GI50: 13.4 µM
  TGI: 26.8 µM
SNB-19 CNS
  GI50: 14.2 µM
  TGI: 29.2 µM
SNB-75 CNS
  GI50: 14.7 µM
  TGI: 43.3 µM
SR leukemia
  GI50: 4.83 µM
  TGI: 23.1 µM
SW-620 colon
  GI50: 15.1 µM
  TGI: 29.4 µM
T-47D breast
  GI50: 12.1 µM
  TGI: 62 µM
TK-10 renal
  GI50: 19.6 µM
  TGI: 41.9 µM
U251 CNS
  GI50: 12.6 µM
  TGI: 32.6 µM
UACC-257 melanoma
  GI50: 16.8 µM
  TGI: 36.2 µM
UACC-62 melanoma
  GI50: 10.4 µM
  TGI: 22.5 µM
UO-31 renal
  GI50: 10 µM
  TGI: 21.7 µM

## O=C(NCCCCC(c1ccc(F)cc1)c1ccc(F)cc1)NCCCc1cccnc1
786-0 renal
  GI50: 13.3 µM
  TGI: 37.1 µM
A498 renal
  GI50: 18.3 µM
  TGI: 32.9 µM
A549 NSCLC
  GI50: 2.62 µM
  TGI: 40.5 µM
ACHN renal
  GI50: 9.16 µM
  TGI: 22.8 µM
BT-549 breast
  GI50: 3.21 µM
  TGI: 15.3 µM
CAKI-1 renal
  GI50: 5.87 µM
  TGI: 25.3 µM
CCRF-CEM leukemia
  GI50: 0.33 µM
  TGI: 24.6 µM
COLO 205 colon
  GI50: 0.877 µM
  TGI: 16.2 µM
DU-145 prostate
  GI50: 0.721 µM
  TGI: 17.2 µM
EKVX NSCLC
  GI50: 5.01 µM
  TGI: 23.6 µM
HCC-2998 colon
  GI50: 0.822 µM
  TGI: 17.3 µM
HCT-116 colon
  GI50: 0.0931 µM
  TGI: 13 µM
HCT-15 colon
  GI50: 0.461 µM
  TGI: 14.9 µM
HL-60(TB) leukemia
  GI50: 1.64 µM
  TGI: > 39.4 µM
HOP-62 NSCLC
  GI50: 14.6 µM
  TGI: 30.2 µM
HOP-92 NSCLC
  GI50: 10.4 µM
  TGI: 26.5 µM
HS 578T breast
  GI50: 5.04 µM
  TGI: 34.9 µM
HT29 colon
  GI50: 0.619 µM
  TGI: 17 µM
IGROV1 ovarian
  GI50: 0.816 µM
  TGI: 19.2 µM
K-562 leukemia
  GI50: 0.385 µM
  TGI: > 100 µM
KM12 colon
  GI50: 0.81 µM
  TGI: 18.4 µM
LOX IMVI melanoma
  GI50: 10.7 µM
  TGI: 23.4 µM
M14 melanoma
  GI50: 0.607 µM
  TGI: 16.4 µM
MALME-3M melanoma
  GI50: 8.47 µM
  TGI: 21.7 µM
MCF7 breast
  GI50: 3.61 µM
  TGI: 20.3 µM
MDA-MB-231 breast
  GI50: 4.94 µM
  TGI: 20.9 µM
MDA-MB-435
  GI50: 0.444 µM
  TGI: 15 µM
MDA-MB-468 breast
  GI50: 1.53 µM
  TGI: 10.6 µM
MOLT-4 leukemia
  GI50: 1.13 µM
  TGI: > 50.5 µM
NCI-H226 lung
  GI50: 12.3 µM
  TGI: 29 µM
NCI-H23 lung
  GI50: 6.8 µM
  TGI: 23 µM
NCI-H460 lung
  GI50: 3.23 µM
  TGI: 19.4 µM
NCI-H522 lung
  GI50: 0.546 µM
  TGI: 16.1 µM
NCI/ADR-RES ovarian
  GI50: 0.584 µM
  TGI: 17.3 µM
OVCAR-3 ovarian
  GI50: 4.58 µM
  TGI: 22.4 µM
OVCAR-4 ovarian
  GI50: 4.71 µM
  TGI: 53.1 µM
OVCAR-5 ovarian
  GI50: 0.628 µM
  TGI: 17.8 µM
OVCAR-8 ovarian
  GI50: 0.127 µM
  TGI: 26.4 µM
PC-3 prostate
  GI50: 0.645 µM
  TGI: 19 µM
RPMI-8226 leukemia
  GI50: 0.627 µM
  TGI: 20.3 µM
RXF 393 renal
  GI50: 12.4 µM
  TGI: 27.3 µM
SF-268 CNS
  GI50: 12.3 µM
  TGI: 29.2 µM
SF-295 CNS
  GI50: 1.82 µM
  TGI: 15.4 µM
SF-539 CNS
  GI50: 0.0974 µM
  TGI: 11.9 µM
SK-MEL-2 melanoma
  GI50: 4.24 µM
  TGI: 16.9 µM
SK-MEL-28 melanoma
  GI50: 10.6 µM
  TGI: 23.5 µM
SK-MEL-5 melanoma
  GI50: 1.22 µM
  TGI: 9.46 µM
SK-OV-3 ovarian
  GI50: 10.9 µM
  TGI: 29 µM
SN12C renal
  GI50: 0.133 µM
  TGI: 15.2 µM
SNB-19 CNS
  GI50: 1.79 µM
  TGI: 18.5 µM
SNB-75 CNS
  GI50: 8.64 µM
  TGI: 26.8 µM
SR leukemia
  GI50: 3.17 µM
  TGI: > 100 µM
SW-620 colon
  GI50: 0.297 µM
  TGI: 15.7 µM
T-47D breast
  GI50: 0.749 µM
  TGI: 16.1 µM
TK-10 renal
  GI50: 13.7 µM
  TGI: 29.2 µM
U251 CNS
  GI50: 3.88 µM
  TGI: 22.1 µM
UACC-257 melanoma
  GI50: 9.06 µM
  TGI: 23.8 µM
UACC-62 melanoma
  GI50: 7.11 µM
  TGI: 20.2 µM
UO-31 renal
  GI50: 5.51 µM
  TGI: 20.1 µM
